# Reference: the supplement of paper PMC10307832
# What was measured:
# Test in all cases: relative viability (nuclei count vs DMSO), 5 days (fraction); higher = more cells survive
# [1] = test system: NCI-H1355
# In short: (§1)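 Values are medians from duplicate plates. Each reflects relative viability, defined as the nuclei count of treated wells over that of vehicle wells. Lung cancer cell lines in 1536-well plates were pin-tool dosed one day after seeding with one drug alone or with a fixed anchor-drug dose plus five library-drug doses (not always all listed) in √10 steps, then fixed, stained and imaged at 4× after 5 days.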
# [2] = test system: NCI-H1623
# In short: as §1
# [3] = test system: NCI-H1648
# In short: as §1
# [4] = test system: Calu-6
# In short: as §1
# [5] = test system: A549
# In short: as §1
# [6] = test system: IA-LM
# In short: as §1
# [7] = test system: NCI-H1703
# In short: as §1
# [8] = test system: EBC-1
# In short: as §1
# [9] = test system: NCI-H1299
# In short: as §1
Structure (SMILES),relative viability ([1]; first compound 0.04 µM),relative viability ([1]; first compound 0.1265 µM),relative viability ([1]; first compound 0.4 µM),relative viability ([1]; first compound 1.265 µM),relative viability ([1]; first compound 4 µM),relative viability ([2]; first compound 0.04 µM),relative viability ([2]; first compound 0.1265 µM),relative viability ([2]; first compound 0.4 µM),relative viability ([2]; first compound 1.265 µM),relative viability ([2]; first compound 4 µM),relative viability ([3]; first compound 0.04 µM),relative viability ([3]; first compound 0.1265 µM),relative viability ([3]; first compound 0.4 µM),relative viability ([3]; first compound 1.265 µM),relative viability ([3]; first compound 4 µM),relative viability ([1]; first compound 0.01 µM),relative viability ([1]; first compound 0.03162 µM),relative viability ([1]; first compound 0.3162 µM),relative viability ([4]; first compound 0.03162 µM),relative viability ([4]; first compound 0.3162 µM),relative viability ([5]; first compound 0.01 µM),relative viability ([5]; first compound 0.03162 µM),relative viability ([5]; first compound 0.3162 µM),relative viability ([6]; first compound 0.01 µM),relative viability ([6]; first compound 0.03162 µM),relative viability ([6]; first compound 0.3162 µM),relative viability ([7]; first compound 0.01 µM),relative viability ([7]; first compound 0.03162 µM),relative viability ([7]; first compound 0.3162 µM),relative viability ([8]; first compound 0.01 µM),relative viability ([8]; first compound 0.03162 µM),relative viability ([8]; first compound 0.3162 µM),relative viability ([2]; first compound 0.01 µM),relative viability ([2]; first compound 0.03162 µM),relative viability ([2]; first compound 0.3162 µM),relative viability ([9]; first compound 0.01 µM),relative viability ([9]; first compound 0.03162 µM),relative viability ([9]; first compound 0.3162 µM),relative viability ([3]; first compound 0.03162 µM),relative viability ([3]; first compound 0.3162 µM)
Clc1ccc(Nc2nnc(Cc3ccncc3)c3ccccc23)cc1 [Vatalanib] + COc1cccc2cc(-c3nc([C@H]4CC[C@H](C(=O)O)CC4)n4ncnc(N)c34)[nH]c12 [OSI-027] (partner 0.5 µM),0.427,0.431,0.435,0.413,0.34,0.39,0.618,0.446,0.418,0.386,0.258,0.265,0.299,0.238,0.255,–,–,–,–,–,–,–,–,–,–,–,–,–,–,–,–,–,–,–,–,–,–,–,–,–
Clc1ccc(Nc2nnc(Cc3ccncc3)c3ccccc23)cc1 [Vatalanib] + Cc1cc(Nc2cc(N3CCN(C)CC3)nc(Sc3ccc(NC(=O)C4CC4)cc3)n2)n[nH]1 [Tozasertib] (partner 0.1 µM),0.585,0.58,0.664,0.462,0.521,0.415,0.435,0.455,0.374,0.393,0.581,0.442,0.483,0.523,0.419,–,–,–,–,–,–,–,–,–,–,–,–,–,–,–,–,–,–,–,–,–,–,–,–,–
CC(C)Oc1cc(Nc2nc(N[C@@H](C)c3ccc(F)cn3)ncc2Cl)n[nH]1 [AZ23] + COc1cc2c(Oc3ccc(NC(=O)C4(C(=O)Nc5ccc(F)cc5)CC4)cc3F)ccnc2cc1OCCCN1CCOCC1 [Foretinib] (partner 0.25 µM),–,–,–,–,–,–,–,–,–,–,–,–,–,–,–,1.21,1.07,1.01,0.923,0.867,1.01,1.03,1.08,1.35,1.17,1.33,0.331,0.342,0.314,0.103,0.105,0.0863,0.712,0.924,0.966,1.19,1.16,1.18,–,–
CC(C)Oc1cc(Nc2nc(N[C@@H](C)c3ccc(F)cn3)ncc2Cl)n[nH]1 [AZ23] + Cc1cc(Nc2cc(N3CCN(C)CC3)nc(Sc3ccc(NC(=O)C4CC4)cc3)n2)n[nH]1 [Tozasertib] (partner 0.1 µM),–,–,–,–,–,–,–,–,–,–,–,–,–,–,–,0.507,0.609,0.597,–,–,–,–,–,–,–,–,–,–,–,–,–,–,0.402,0.427,0.504,–,–,–,0.542,0.502
C[C@@H]1CN(CC(=O)Nc2ccc3c(c2)Cc2cccc(-c4cc(=O)cc(N5CCOCC5)o4)c2S3)C[C@H](C)O1 + COc1cccc2cc(-c3nc([C@H]4CC[C@H](C(=O)O)CC4)n4ncnc(N)c34)[nH]c12 [OSI-027] (partner 0.5 µM),0.447,0.472,0.321,–,0.335,0.411,0.413,0.412,–,0.381,0.247,0.258,0.242,–,0.235,–,–,–,–,–,–,–,–,–,–,–,–,–,–,–,–,–,–,–,–,–,–,–,–,–
C[C@@H]1CN(CC(=O)Nc2ccc3c(c2)Cc2cccc(-c4cc(=O)cc(N5CCOCC5)o4)c2S3)C[C@H](C)O1 + Cc1cc(Nc2cc(N3CCN(C)CC3)nc(Sc3ccc(NC(=O)C4CC4)cc3)n2)n[nH]1 [Tozasertib] (partner 0.1 µM),0.361,0.514,0.461,–,0.42,0.461,0.409,0.406,–,0.417,0.3,0.421,0.542,–,0.395,–,–,–,–,–,–,–,–,–,–,–,–,–,–,–,–,–,–,–,–,–,–,–,–,–
